Source: patent US20120005774A1, “USE OF TREHALASE TO OBTAIN DROUGHT RESISTANCE IN PLANTS” (KATHOLIEKE UNIVERSITEIT LEUVEN, K.U. LEUVEN R & D, priority 2009, published 2012)

Assays:
[1] = tested on: Arabidopsis seedlings; test: Seedling growth assay on trehalose with or without Val A; format: in vivo, Arabidopsis thaliana; conditions: for sensitivity to trehalose, root length: with Val A
Method: FIG. 3: Growth phenotypes of AtTRE1 mutants on trehalose. Panel A, GT tre KO lines and wt Ler with Val A. Panel B, SA TRE OX lines and wt Col with Val A. Panel C, GT tre KO lines and wt Ler without Val A. Panel D, SA TRE OX lines and wt Col without Val A. Approximately 30 seedlings/treatment were grown on vertical plates, 1× MS without suc, in a 12 hours-12 hours day/night cycle, for 10 days with 0, 0.5, 1, 5, 10, or 25 mM trehalose. Data are means±SE.
FIG. 4: Growth phenotypes of AtTRE1 mutants on high trehalose. Seedlings grown in the same conditions as described in FIG. 3, without Val A, and with higher concentration of trehalose: 50, 100, 150, and 200 mM. Representative seedlings are shown.
Vapor-sterilized seeds were sown after a 48-hour stratification period in vertically or horizontally oriented Petri dishes on a full strength (or mentioned otherwise) Murashige and Skoog Salt Mixture including vitamins (MS) medium (4.3 g/l) with MES (0.5 g/l) and solidified with Phytagar (8 g/l) (Duchefa, Haarlem, The Netherlands). The media was enriched with sucrose/glucose (0-6%) or trehalose, depending on the tested conditions, which are specified. Val A was added in a concentration of 10 μM.
In our growth assay, no extra sugar was added to the media.

[2] = tested on: Arabidopsis seedlings; conditions: absence of Val A; cited from earlier work
[3] = target: T1, trehalase (Arabidopsis thaliana, UniProt Q9SU50); conditions: cited from earlier work
T1 sequence (Q9SU50 1-626): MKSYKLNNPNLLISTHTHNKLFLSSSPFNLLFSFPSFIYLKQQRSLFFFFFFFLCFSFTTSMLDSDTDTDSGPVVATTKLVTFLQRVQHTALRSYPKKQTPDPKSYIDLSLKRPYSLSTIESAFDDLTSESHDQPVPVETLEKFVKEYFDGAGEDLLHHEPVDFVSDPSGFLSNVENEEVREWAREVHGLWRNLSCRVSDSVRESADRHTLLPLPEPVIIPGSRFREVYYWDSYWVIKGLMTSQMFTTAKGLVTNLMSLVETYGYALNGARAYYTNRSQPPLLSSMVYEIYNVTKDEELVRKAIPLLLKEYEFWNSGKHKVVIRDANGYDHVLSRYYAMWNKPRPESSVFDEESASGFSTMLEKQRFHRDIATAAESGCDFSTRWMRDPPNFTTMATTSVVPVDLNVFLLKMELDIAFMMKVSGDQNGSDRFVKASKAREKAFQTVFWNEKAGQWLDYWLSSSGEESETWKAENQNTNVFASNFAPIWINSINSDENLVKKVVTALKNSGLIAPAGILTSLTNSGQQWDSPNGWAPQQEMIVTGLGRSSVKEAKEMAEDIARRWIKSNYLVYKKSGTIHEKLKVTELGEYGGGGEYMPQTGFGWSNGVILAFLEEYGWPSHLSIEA

[4] = tested on: plants; conditions: Val A treatment, cited from earlier work

Row | Structure (SMILES) | sensitivity to trehalose, root length ([1]; Col wild-type plants, 10 mM trehalose) | development with increasing trehalose concentrations ([1]; GT tre KO mutants versus wild-type Ler, without Val A) | sensitivity to trehalose, root length ([1]; Ler wild-type plants) | resistance to higher trehalose levels ([1]; SA TRE OX plants versus wild-type controls, in the presence of Val A) | sensitivity to high trehalose concentrations ([1]; SA TRE OX plants versus wild-type seedlings, without Val A, up to 200 mM) | root growth and development of wild-type seedlings ([1]; gradually increased trehalose (0-25 mM) in the presence of Val A 10 μM, no extra sugar, 10 days) | development of wild-type seedlings on high trehalose concentrations [2] | inhibition of trehalase activity in the OX lines ([1]; Val A 10 μM, SA TRE OX lines, concluded from growth on trehalose) | trehalase activity [3] | phytotoxicity ([4]; adult plants) | phenotypic irregularities in seedlings ([4]; seedlings)
1 | OC[C@H]1O[C@H](O[C@H]2O[C@H](CO)[C@@H](O)[C@H](O)[C@H]2O)[C@H](O)[C@@H](O)[C@@H]1O [trehalose, α-D-glucopyranosyl-1,1-α-D-glucopyranoside] | more dramatic decrease in root length | significantly more affected in development | rather gradual inhibitory effect | significantly more resistant | insensitive | increased inhibition of root growth and development | arrest with development shortly after germination |  |  |  | 
2 | OCC1=C[C@@H](N[C@H]2C[C@H](CO)[C@@H](O[C@H]3O[C@@H](CO)[C@H](O)[C@@H](O)[C@@H]3O)[C@H](O)[C@H]2O)[C@H](O)[C@@H](O)[C@@H]1O [Validamycin A] |  |  |  |  |  |  |  | not sufficient to inhibit increased trehalase activity | specifically inhibits trehalase activity | causes phytotoxicity | no phenotypic irregularities
